The results in this text go back to PubChem BioAssay AID248 (DTP/NCI, 2004).

For the experiment, the system named is L1210 leukemia ip in BDF1 mice, survival T/C. Description: NCI In Vivo Anticancer Drug Screen. Data for tumor model L1210 Leukemia (intraperitoneal) in B6D2F1 (BDF1) mice. The note with it: endpoint: mean survival time, higher = longer survival. The essentials: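 Read-out is survival time, reported as the treated-group measurement over the vehicle-control measurement.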

Setting [1] is: dose: 100.0 mg/kg/injection, schedule: Q01DX001 (ip), vehicle: carboxymethylcellulose (CMC).
The mark [2] stands for this setting: dose: 200.0 mg/kg/injection, schedule: Q01DX001 (ip), vehicle: carboxymethylcellulose (CMC).
The mark [3] stands for this setting: dose: 400.0 mg/kg/injection, schedule: Q01DX001 (ip), vehicle: carboxymethylcellulose (CMC).
The mark [4] stands for this setting: dose: 100.0 mg/kg/injection, schedule: Q04DX003 (ip), vehicle: saline.
Where [5] appears, read: dose: 100.0 mg/kg/injection, schedule: Q01DX001 (ip), vehicle: saline.
[6] abbreviates: dose: 200.0 mg/kg/injection, schedule: Q01DX001 (ip), vehicle: saline.
[7] abbreviates: dose: 200.0 mg/kg/injection, schedule: Q04DX003 (ip), vehicle: saline.
Setting [8] is: dose: 400.0 mg/kg/injection, schedule: Q01DX001 (ip), vehicle: saline.
[9] abbreviates: dose: 400.0 mg/kg/injection, schedule: Q04DX003 (ip), vehicle: saline.
The mark [10] stands for this setting: dose: 100.0 mg/kg/injection, schedule: Q04DX003 (ip), vehicle: Klucel (hydroxypropylcellulose) (HPC).
The mark [11] stands for this setting: dose: 200.0 mg/kg/injection, schedule: Q04DX003 (ip), vehicle: Klucel (hydroxypropylcellulose) (HPC).
The mark [12] stands for this setting: dose: 400.0 mg/kg/injection, schedule: Q04DX003 (ip), vehicle: Klucel (hydroxypropylcellulose) (HPC).
The mark [13] stands for this setting: dose: 100.0 mg/kg/injection, schedule: Q04DX003 (ip), vehicle: saline with Tween-80.
[14] abbreviates: dose: 100.0 mg/kg/injection, schedule: Q01DX009 (ip), vehicle: Klucel (hydroxypropylcellulose) (HPC).
Where [15] appears, read: dose: 200.0 mg/kg/injection, schedule: Q01DX009 (ip), vehicle: Klucel (hydroxypropylcellulose) (HPC).
[16] abbreviates: dose: 400.0 mg/kg/injection, schedule: Q01DX009 (ip), vehicle: Klucel (hydroxypropylcellulose) (HPC).
Where [17] appears, read: dose: 100.0 mg/kg/injection, schedule: Q01DX009 (ip), vehicle: saline.
Setting [18] is: dose: 200.0 mg/kg/injection, schedule: Q01DX009 (ip), vehicle: saline.
Where [19] appears, read: dose: 200.0 mg/kg/injection, schedule: Q04DX003 (ip), vehicle: saline with Tween-80.
The mark [20] stands for this setting: dose: 400.0 mg/kg/injection, schedule: Q04DX003 (ip), vehicle: saline with Tween-80.
Setting [21] is: dose: 400.0 mg/kg/injection, schedule: Q01DX009 (ip), vehicle: saline.

Values joined by “and” are separate entries in the source; they are usually repeats but may differ in a detail not shown here. Equal entries are not always repeated. Toxic doses and inconclusive results are not listed.

On to `CCOP(=O)(Nc1ccc2c(c1)Cc1cc([N+](=O)[O-])ccc1-2)OCC`, for which the T/C is, setting by setting: (dose: 50.0 mg/kg/injection, schedule: Q01DX001 (ip), vehicle: carboxymethylcellulose (CMC)) 97 % of control; under setting [1], 94 % of control; under setting [2], 92 % of control; under setting [3], 94 % of control.

With `CCCCCCCCC1SC1CCCCCCCC(=O)O` (stereo unspecified), the T/C is 103 % of control (dose: 100.0 mg/kg/injection, schedule: Q04DX002 (ip), vehicle: Klucel (hydroxypropylcellulose) (HPC)); 100 % of control (dose: 200.0 mg/kg/injection, schedule: Q04DX002 (ip), vehicle: Klucel (hydroxypropylcellulose) (HPC)); 95 % of control (dose: 400.0 mg/kg/injection, schedule: Q04DX002 (ip), vehicle: Klucel (hydroxypropylcellulose) (HPC)).

For the molecule `O=C(CCl)Nc1cc(Cl)ccc1N1CCCCC1`, the T/C reads like this: (dose: 100.0 mg/kg/injection, schedule: Q01DX009 (ip), vehicle: acetone) 100 % of control; (dose: 200.0 mg/kg/injection, schedule: Q01DX009 (ip), vehicle: acetone) 91 % of control; (dose: 400.0 mg/kg/injection, schedule: Q01DX009 (ip), vehicle: acetone) 91 % of control.

For `CCCCC(CC)COC(=O)C[N+](C)(C)CCOC(c1ccccc1)c1ccccc1` (stereo unspecified), the T/C by setting is: (dose: 6.25 mg/kg/injection, schedule: Q04DX003 (ip), vehicle: saline with Tween-80) 91 % of control; (dose: 12.5 mg/kg/injection, schedule: Q04DX003 (ip), vehicle: saline with Tween-80) 97 % of control.

As for `BrC1CCCCCCC1Br` (stereo unspecified), the T/C is 102 % of control (dose: 25.0 mg/kg/injection, schedule: Q04DX003 (ip), vehicle: saline); 96 % of control (dose: 50.0 mg/kg/injection, schedule: Q04DX003 (ip), vehicle: saline); 91 % of control under setting [4].

As to `Nc1ncnc2c1cnn2CCCl`, the T/C under setting [5] was 101 % of control; the T/C under setting [4] is 106 % of control; the T/C (dose: 132.0 mg/kg/injection, schedule: Q04DX003 (ip), vehicle: saline) was 104 % of control and 123 % of control; the T/C under setting [6] was 101 % of control; the T/C under setting [7] was 102 % of control and 124 % of control; the T/C (dose: 300.0 mg/kg/injection, schedule: Q04DX003 (ip), vehicle: saline) is 104 % of control. For the same molecule, the T/C reads like this: under setting [8], 102 % of control; under setting [9], 101 % of control.

Take `O=C(O)c1cccc([N+](=O)[O-])c1[N+](=O)[O-]`: the T/C by setting is: (dose: 50.0 mg/kg/injection, schedule: Q04DX003 (ip), vehicle: Klucel (hydroxypropylcellulose) (HPC)) 94 % of control; under setting [1], 95 % of control; under setting [10], 92 % of control; under setting [2], 93 % of control; under setting [11], 103 % of control; under setting [3], 93 % of control. The T/C under setting [12] was 92 % of control.

On to `c1ccc(C2OC3(CCCCC3)C[N+]23CCCC3)cc1` (stereo unspecified), for which the T/C reads like this: (dose: 25.0 mg/kg/injection, schedule: Q01DX009 (ip), vehicle: saline with Tween-80) 109 % of control; (dose: 50.0 mg/kg/injection, schedule: Q01DX009 (ip), vehicle: saline with Tween-80) 107 % of control; under setting [13], 97 % of control.

`Nc1nc(N)c(N=Nc2ccc([As](=O)(O)O)c(O)c2)c(N)n1`: the T/C by setting is: under setting [5], 92 % of control; under setting [6], 92 % of control; under setting [8], 100 % of control.

`CC(C)CCOC(=O)C1(C)OC1c1ccccc1` (stereo unspecified): the T/C reads like this: (dose: 100.0 mg/kg/injection, schedule: Q04DX002 (ip), vehicle: saline) 101 % of control; (dose: 200.0 mg/kg/injection, schedule: Q04DX002 (ip), vehicle: saline) 97 % of control; (dose: 400.0 mg/kg/injection, schedule: Q04DX002 (ip), vehicle: saline) 93 % of control.

For `COc1ccc(COC(=O)CN2C(=O)c3ccccc3C2=O)cc1`, the T/C was 98 % of control under setting [14]; 95 % of control under setting [10]; 107 % of control under setting [15]; 95 % of control under setting [11]; 98 % of control under setting [16]; 93 % of control under setting [12].

`O=CO.[Pb]`: the T/C by setting is: under setting [5], 90 % of control; under setting [6], 92 % of control; under setting [8], 98 % of control.

In the case of `CC(C)OP(=O)(CP(=O)(OC(C)C)OC(C)C)OC(C)C`, the T/C was 95 % of control under setting [17] and 97 % of control under setting [18].

For the molecule `Cc1ccc(C2NC(=O)c3ccccc3N2)c(C)c1` (stereo unspecified), the T/C was 100 % of control (dose: 50.0 mg/kg/injection, schedule: Q01DX009 (ip), vehicle: Klucel (hydroxypropylcellulose) (HPC)); 94 % of control and 99 % of control under setting [14]; 103 % of control under setting [10]; 93 % of control (dose: 150.0 mg/kg/injection, schedule: Q01DX009 (ip), vehicle: Klucel (hydroxypropylcellulose) (HPC)); 106 % of control under setting [15]; 95 % of control under setting [11]. Besides, the T/C reads like this: under setting [16], 96 % of control; under setting [12], 95 % of control.

For `Cc1nc(NC(=O)CBr)[nH]c(=O)c1CCC(C)C`, the T/C is 107 % of control under setting [13], 100 % of control under setting [19] and 88 % of control under setting [20].

Consider `OCCCC1CCCCC1`, for which the T/C (dose: 50.0 mg/kg/injection, schedule: Q01DX009 (ip), vehicle: saline) is 97 % of control; the T/C under setting [17] is 175 % of control; the T/C under setting [18] was 103 % of control.

On to `O=C(O)CC1CCC(CC(=O)O)CC1` (stereo unspecified), for which the T/C was 92 % of control under setting [13], 89 % of control under setting [19] and 94 % of control under setting [20].

Regarding `COc1ccc(N2C(=O)OC3(CCN(CCCC(=O)c4ccccc4)CC3)C2=O)cc1`, the T/C by setting is: under setting [10], 101 % of control; under setting [11], 98 % of control; under setting [12], 92 % of control.

As for `O=[N+]([O-])c1cccc(S(=O)(=O)O)c1.[Fe]`, the T/C under setting [4] is 95 % of control and the T/C under setting [7] was 89 % of control.

For `CC1=Nc2ccc([N+](=O)[O-])cc2N=C(C)C1`, the T/C is, setting by setting: under setting [17], 95 % of control; under setting [4], 105 % of control; under setting [18], 93 % of control; under setting [7], 96 % of control; under setting [21], 92 % of control; under setting [9], 96 % of control.

`OCCN(CCO)CN(CO)c1nc(N(CO)CN(CCO)CCO)nc(N(CO)CN(CCO)CCO)n1`: the T/C by setting is: under setting [17], 100 % of control; under setting [4], 101 % of control; under setting [18], 109 % of control; under setting [7], 101 % of control; under setting [21], 109 % of control; under setting [9], 91 % of control.

With `Nc1nc2nc(CCc3ccccc3)cnc2c(=O)[nH]1`, the T/C is 96 % of control (dose: 25.0 mg/kg/injection, schedule: Q01DX001 (ip), vehicle: saline with Tween-80); 93 % of control (dose: 50.0 mg/kg/injection, schedule: Q01DX001 (ip), vehicle: saline with Tween-80); 90 % of control (dose: 100.0 mg/kg/injection, schedule: Q01DX001 (ip), vehicle: saline with Tween-80).

On to `CCC(CC)=NNc1ccc([N+](=O)[O-])cc1[N+](=O)[O-]`, for which the T/C was 95 % of control under setting [5], 97 % of control under setting [6] and 97 % of control under setting [8].

Turning to `O=[N+]([O-])c1ccc(OP(=O)(N2CCCCC2)N2CCCCC2)cc1`, the T/C runs as follows: (dose: 25.0 mg/kg/injection, schedule: Q04DX002 (ip), vehicle: saline with Tween-80) 93 % of control; (dose: 50.0 mg/kg/injection, schedule: Q04DX002 (ip), vehicle: saline with Tween-80) 101 % of control; (dose: 100.0 mg/kg/injection, schedule: Q04DX002 (ip), vehicle: saline with Tween-80) 93 % of control.

With `Cc1cc(NS(=O)(=O)c2ccc(N=Nc3c(N)n(C)c(=O)n(C)c3=O)cc2)nc(C)n1`, the T/C runs as follows: under setting [1], 89 % of control; under setting [2], 104 % of control; under setting [3], 101 % of control.
